This is an account of results in JP2007509054A, “血管健康を促進するシリルフェノール” (Amylin Pharmaceuticals LLC, priority 2003, dated 2005).

Series [1] relates to serum lipids (血清脂質). Nature of the series: Ex vivo copper-induced lipid peroxidation of serum lipids (lag phase), rabbits fed compound for 70 days. The class given is in vivo. The conditions noted are these: rabbit, Fig. 1.
Series [2] is described as follows: Serum antioxidant activity in rats fed AC3056 in the diet. The conditions noted are these: rats fed a diet containing AC3056. In kind it is in vivo, rat.
Series [3] in a line: Serum concentration in rats fed AC3056 in the diet. The class given is in vivo, rat. The note with it: rats fed a diet containing AC3056.
The subject of series [4] is carotid artery (頚動脈). Nature of the series: Mechanical carotid injury model in ApoE-/- mice: quantitative morphometry. The class given is in vivo, mouse. The conditions noted are these: ApoE-/- male mice, high-fat diet with 1.25% cholesterol, treated 18 h before and daily for 28 days after injury, Fig. 7.
For series [5], the system named is leukocyte recruitment (白血球動員). Nature of the series: Mechanical carotid injury model in ApoE-/- mice: CD45-positive cells / leukocyte recruitment. In kind it is in vivo, mouse. The note with it: ApoE-/- male mice, treated 18 h before and daily for 28 days after injury, Fig. 8.
For series [6], the system named is VCAM-1 (VCAM−1). Nature of the series: IL-4 induced VCAM-1 expression in human coronary artery smooth muscle cells (CASMC). In kind it is cell-based. The conditions noted are these: IL-4 100 nmol/L, Fig. 2.
For series [7], the system named is VCAM-1 (VCAM−1). Nature of the series: Cytokine (TNF-α) induced VCAM-1 expression in human umbilical vein endothelial cells (HUVEC). The class given is cell-based. The conditions noted are these: Fig. 2.

For `COc1ccc([Si](C)(C)COc2cc(C(C)(C)C)c(O)c(C(C)(C)C)c2)cc1` [AC3056], the “increase in lag phase versus serum concentration” value in series [1] is recorded as “血清濃度に比例する”. In addition, the “antioxidant activity in serum” value in series [2] is “血清中の抗酸化活性の増加”. In series [3], this molecule yielded a mean serum concentration of 17700 ng/mL. In series [4], the intima/media ratio entry is “内膜/中膜の比が低下する”, the mean lumen thickness entry is “平均の内腔厚みが増加する” and the mean neointimal thickness result is given as “平均の新血管内膜の厚みが低下する”. The “leukocyte recruitment to the neointimal space after vascular injury (CD45-positive cells)” value in series [5] is reported as “白血球動員を阻害する”.
As to `CC(C)(Sc1cc(C(C)(C)C)c(O)c(C(C)(C)C)c1)Sc1cc(C(C)(C)C)c(O)c(C(C)(C)C)c1` [プロブコール], in series [6], the “inhibition of IL-4 induced VCAM-1 expression” value is given as “本発明の化合物より一般的に有効ではない”. In series [7], the “inhibition of cytokine-induced (TNF-α) VCAM-1 expression” value is on record as “同様の濃度範囲にて有効ではない”.
